Reference: US11306119B2, “Peptide bound to PD-L1 and use thereof” (KYUNGPOOK NATIONAL UNIVERSITY INDUSTRY-ACADEMIC COOPERATION …, priority 2017, dated 2022)

Experiments:
[1] = system: PD-L1 on MDA MB231 cells; test: Peptide and receptor internalization assay in MDA MB231 cells; type: cell-based, human; settings: MDA MB231, FIG. 2d
Protocol: MDA MB231, CT26, MCF7, Hek29 cells (1×10^5) were seeded in eight well chamber slides for overnight. Next day, the cells were washed twice with PBS and incubated with 1% BSA at RT for 1 hr to reduce the non-specific binding of peptides. The cells were then incubated with different concentration ([…]) of FITC conjugated peptide for 1 hr at 4° C. After fixation, cells were washed, and counter stained with DAPI, mounted and subjected to confocal microscopy (Zeiss, Oberkochen, Germany). For the peptide internalization assay, the MDA MB231 cells were incubated with […] concentration of FITC-conjugated peptides at 37° C. for 1 hr 30 min, the procedure was then continued as previously described. For the receptor internalization assay, first the internalization of peptide was obtained as described above and then after several washing steps with PBS, the PD-L1 antibody (1:100 dilution) was incubated with the cell for 1 hr 30 min at 37° C. […] For flow cytometry, cells (1×10^6) were harvested and then suspended in the culture medium containing 1% BSA at RT for 1 hr for blocking and then incubated with FITC-labelled PD-L1 for another 1 hr at 4° C. After several washing, 300 ul of cell suspension with PBS was subjected to flow cytometry (BD, Franklin Lakes, N.J.). […]

[2] = system: CT26 syngeneic tumor; test: Antitumor therapy in CT26 syngeneic mouse model (peptide alone); type: in vivo; settings: i.v. every alternative day, 24 days, FIG. 5b
Protocol: (§1) 6-8-week-old WT Balb/c mice were purchased. Mice was cared and maintained under the guidelines of the Institutional Animal Care and Use Committee (IACUC) of Kyungpook National University (2014-0001-8.). Tumor was injected onto the lower right flank of the mice. For the in-vivo homing imaging, the tumor was developed for 7 days, after the tumor size reached to 100 mm^3, the mice were injected with 100 μl of […] Flamma-675 NIR fluorescence dye labelled peptides and allow the complete circulation for an hour. After incubation, the mice were anesthetized, and the image was taken using the IVIS imaging system. […] Tumor size was measured using a digital caliper, and the tumor volume was calculated using the formula (Volume ¼ (L−W−H)/2. (Length: longest dimension, Width: shorter dimension, parallel to the mouse body and Height: perpendicular to the length and width). All mice were checked for the ulceration and at the end of the treatment and the mice were sacrificed for the immune cell analysis.
(§2) Tumors were isolated, minced and incubated with a digestion buffer containing collagenase D (5 mg/ml) with the RPMI-1640 medium at 37° C. for 40 min. […] The single cell suspension was made ready to use and CD45 antibody was used to stain the tumor infiltrating leukocytes and then analyzed with following antibodies for CD4, CD8 and F4/80. […]

[3] = system: CT26 mouse syngeneic colon tumor; test: Combination therapy of peptides with doxorubicin in CT26 syngeneic colon tumor model; type: in vivo; settings: flow cytometry, FIG. 6e
Protocol: as §1, §2

| Substance | surface PD-L1 antibody staining after peptide internalization (receptor internalization) [1] | tumor volume control compared to control peptide and PBS group [2] | percentage of CD4+ T cells in tumor tissue, increased value ("to") [3] [%] |
| --- | --- | --- | --- |
| NSSSVDK (phage coat protein used as control peptide) | did not decrease | – | – |
| CLQKTPKQC [PD-L1Pep-1] | – | robust effect | 6 |
